# Reference: ChEMBL document CHEMBL1201862, “PubChem BioAssay data set” (2004)
# Calls of active or inactive are those of the source.
# Key:
# [1] = cytotoxicity toward NIH3T3 fibroblasts, dose response, counter-screen, cell-based, ATP luminescence, mouse fibroblasts (AID 2010); assay type: functional;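 note: cells exposed to compound for about 90 hours before reading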
# [2] = HepG2 cell cytotoxicity, dose response, cytotoxicity control for Shn3 inhibitor project, CellTiter-Glo, cherry-picked (AID 624134); assay type: functional, cell-based
# [3] = control 3'UTR Renilla luciferase suppression, dose response, counter-screen for Shn3 inhibitor project, cell-based, Clone20-Shn3RL, cherry-picked (AID 624133); assay type: functional
# Streptococcus = experiment: Group A Streptococcus viability loss, dose response, counter-screen for streptokinase expression inhibitor project, luminescence, BacTiterGlo (AID 1915); assay type: functional, organism-based;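 note: potency for reduction of bacterial viability or growth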
# INS1 = experiment: beta cell apoptosis inhibitors, cytokine rescue, dose response, luminescence, retest (AID 449756); assay type: functional, cell-based; details: Rattus norvegicus;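 note: cell death triggered by IL-1 beta plus TNF-alpha plus IFN-gamma mixture; protective hits raise ATP signal compared with cytokine alone wells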
# [4] = inhibitors of intracellular T. cruzi replication, confirmation, NIH3T3 host cells, beta-gal luminescence (AID 2044); assay type: functional, cell-based;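 note: intracellular parasites grown in NIH/3T3 mouse fibroblasts as host cells; luminescent beta-galactosidase reporter signal from transgenic T. cruzi replicating inside host cells; inhibitors lower the luminescence signal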
# [5] = tested on: Streptococcus sp. 'group A'; experiment: growth inhibition of control SK(-) GAS strain, dose response, counter-screen for streptokinase expression inhibitor project, luminescence, kanamycin, BacTiterGlo, confirmation (AID 1900); assay type: functional, organism-based
# [6] = Shn3 3'UTR reporter inhibitors, dose response, cell-based, Clone20 osteoblasts, firefly luciferase, cherry-picked (AID 624132); assay type: functional;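 note: firefly luciferase luminescence from reporter carrying the Shn3 3'UTR in osteoblasts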
# [7] = target: Induced myeloid leukemia cell differentiation protein Mcl-1 (Homo sapiens, UniProt Q07820); assay type: functional
# [8] = target: T1, Short transient receptor potential channel 4 (Mus musculus, UniProt Q9QUQ5); experiment: mouse TRPC4 channel inhibitors, dose response, cell-based, HEK293 TRPC4/mu-opioid, Fluo-4 calcium (AID 434942); assay type: functional;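 note: potency of inhibitors blocking the TRPC4 calcium response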
# T1 sequence (Q9QUQ5 whole entry): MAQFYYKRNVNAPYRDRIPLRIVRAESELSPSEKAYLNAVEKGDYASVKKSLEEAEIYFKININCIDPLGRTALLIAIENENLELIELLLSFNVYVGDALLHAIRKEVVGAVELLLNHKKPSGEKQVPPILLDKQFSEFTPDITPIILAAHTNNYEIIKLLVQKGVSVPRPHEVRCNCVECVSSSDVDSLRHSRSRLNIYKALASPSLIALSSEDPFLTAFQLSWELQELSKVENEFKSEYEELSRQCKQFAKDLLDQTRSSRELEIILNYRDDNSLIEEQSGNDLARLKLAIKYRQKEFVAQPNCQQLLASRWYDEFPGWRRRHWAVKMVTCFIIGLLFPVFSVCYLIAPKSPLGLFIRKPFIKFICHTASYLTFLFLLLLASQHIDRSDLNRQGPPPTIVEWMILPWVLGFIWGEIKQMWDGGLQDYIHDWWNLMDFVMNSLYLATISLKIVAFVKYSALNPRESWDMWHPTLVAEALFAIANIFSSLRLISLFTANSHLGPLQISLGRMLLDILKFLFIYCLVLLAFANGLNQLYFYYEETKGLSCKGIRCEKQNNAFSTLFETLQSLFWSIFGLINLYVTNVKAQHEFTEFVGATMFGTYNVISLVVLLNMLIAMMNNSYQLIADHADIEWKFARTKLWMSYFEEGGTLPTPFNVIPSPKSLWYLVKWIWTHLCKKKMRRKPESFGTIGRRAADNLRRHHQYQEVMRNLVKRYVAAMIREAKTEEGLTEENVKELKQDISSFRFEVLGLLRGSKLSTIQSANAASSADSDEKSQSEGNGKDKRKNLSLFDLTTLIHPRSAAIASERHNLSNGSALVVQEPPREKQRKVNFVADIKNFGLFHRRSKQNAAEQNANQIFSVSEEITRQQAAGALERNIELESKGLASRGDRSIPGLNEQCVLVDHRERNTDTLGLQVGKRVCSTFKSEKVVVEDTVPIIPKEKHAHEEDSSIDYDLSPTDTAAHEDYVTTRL
# Fatty acid synthase [9] = target: T2, Fatty acid synthase (Homo sapiens, UniProt P49327); experiment: FAS thioesterase domain inhibitors, dose response, biochemical, kinetic fluorescence intensity (AID 624326); assay type: functional;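 note: rate of fluorescence rise from hydrolysis of a fluorogenic O-methyl fluorescein ester substrate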
# Fatty acid synthase [10] = target: T2, Fatty acid synthase; experiment: FAS thioesterase domain inhibitors, dose response, biochemical, endpoint fluorescence intensity, uHTS hits (AID 624327); assay type: functional;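 note: fluorescence from hydrolysis of an O-methyl fluorescein acyl ester substrate by the enzyme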
# Large T antigen = Large T antigen (Simian virus 40, UniProt P03070); assay type: functional, Betapolyomavirus macacae;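 note: Confirmatory-stage PubChem screen for compounds that inhibit SV40 T antigen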
# [11] = NIH-3T3 fibroblast cytotoxicity, dose response, cytotoxicity control, cell-based, fluorescence, Alamar Blue, secondary assay (AID 2327); assay type: functional;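 note: NIH-3T3 mouse fibroblasts cultured with fluconazole at 8 µg/mL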
# [12] = Luminescence Cell-Based Dose Confirmation HTS to Identify Inhibitors of Platelet Dense Granule Release. [Related pubchem assays: 1663 (Primary HTS), 1678 (Summary of Project)]; assay type: functional
# [13] = target: Luciferin 4-monooxygenase (Photinus pyralis, UniProt P08659); experiment: firefly luciferase enzyme inhibitors, dose response, biochemical, luminescence (AID 1891)
# [14] = target: T3, Rac GTPase-activating protein 1 (Homo sapiens, UniProt Q9H0H5); experiment: MgcRacGAP GTPase-activating activity inhibitors, confirmation, biochemical, ADP Hunter fluorescence, primary and confirmatory (AID 624330); assay type: functional
# T3 sequence (Q9H0H5 whole entry): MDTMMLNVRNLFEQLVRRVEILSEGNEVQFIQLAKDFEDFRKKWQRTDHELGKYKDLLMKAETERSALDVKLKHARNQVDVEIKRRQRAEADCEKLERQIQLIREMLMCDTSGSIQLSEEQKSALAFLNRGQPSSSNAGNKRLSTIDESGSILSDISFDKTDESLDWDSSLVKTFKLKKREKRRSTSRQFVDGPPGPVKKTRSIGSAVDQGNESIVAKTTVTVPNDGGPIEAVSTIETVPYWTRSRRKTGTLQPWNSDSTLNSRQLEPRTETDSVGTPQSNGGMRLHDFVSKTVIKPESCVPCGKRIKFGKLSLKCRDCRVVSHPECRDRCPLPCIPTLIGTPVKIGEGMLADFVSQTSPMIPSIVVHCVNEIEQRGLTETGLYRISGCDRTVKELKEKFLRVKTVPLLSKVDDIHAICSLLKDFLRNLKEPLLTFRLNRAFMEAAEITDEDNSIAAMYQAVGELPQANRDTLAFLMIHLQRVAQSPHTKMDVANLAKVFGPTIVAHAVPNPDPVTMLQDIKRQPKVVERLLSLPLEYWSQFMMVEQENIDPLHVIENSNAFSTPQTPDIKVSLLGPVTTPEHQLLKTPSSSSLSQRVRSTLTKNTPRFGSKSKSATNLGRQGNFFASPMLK
# [15] = P. falciparum Dd2 growth inhibitors, dose response, SYBR Green, cherry-picked samples (AID 1159567); assay type: functional, cell-based
# T2 sequence (P49327 whole entry, the tested form may be a part): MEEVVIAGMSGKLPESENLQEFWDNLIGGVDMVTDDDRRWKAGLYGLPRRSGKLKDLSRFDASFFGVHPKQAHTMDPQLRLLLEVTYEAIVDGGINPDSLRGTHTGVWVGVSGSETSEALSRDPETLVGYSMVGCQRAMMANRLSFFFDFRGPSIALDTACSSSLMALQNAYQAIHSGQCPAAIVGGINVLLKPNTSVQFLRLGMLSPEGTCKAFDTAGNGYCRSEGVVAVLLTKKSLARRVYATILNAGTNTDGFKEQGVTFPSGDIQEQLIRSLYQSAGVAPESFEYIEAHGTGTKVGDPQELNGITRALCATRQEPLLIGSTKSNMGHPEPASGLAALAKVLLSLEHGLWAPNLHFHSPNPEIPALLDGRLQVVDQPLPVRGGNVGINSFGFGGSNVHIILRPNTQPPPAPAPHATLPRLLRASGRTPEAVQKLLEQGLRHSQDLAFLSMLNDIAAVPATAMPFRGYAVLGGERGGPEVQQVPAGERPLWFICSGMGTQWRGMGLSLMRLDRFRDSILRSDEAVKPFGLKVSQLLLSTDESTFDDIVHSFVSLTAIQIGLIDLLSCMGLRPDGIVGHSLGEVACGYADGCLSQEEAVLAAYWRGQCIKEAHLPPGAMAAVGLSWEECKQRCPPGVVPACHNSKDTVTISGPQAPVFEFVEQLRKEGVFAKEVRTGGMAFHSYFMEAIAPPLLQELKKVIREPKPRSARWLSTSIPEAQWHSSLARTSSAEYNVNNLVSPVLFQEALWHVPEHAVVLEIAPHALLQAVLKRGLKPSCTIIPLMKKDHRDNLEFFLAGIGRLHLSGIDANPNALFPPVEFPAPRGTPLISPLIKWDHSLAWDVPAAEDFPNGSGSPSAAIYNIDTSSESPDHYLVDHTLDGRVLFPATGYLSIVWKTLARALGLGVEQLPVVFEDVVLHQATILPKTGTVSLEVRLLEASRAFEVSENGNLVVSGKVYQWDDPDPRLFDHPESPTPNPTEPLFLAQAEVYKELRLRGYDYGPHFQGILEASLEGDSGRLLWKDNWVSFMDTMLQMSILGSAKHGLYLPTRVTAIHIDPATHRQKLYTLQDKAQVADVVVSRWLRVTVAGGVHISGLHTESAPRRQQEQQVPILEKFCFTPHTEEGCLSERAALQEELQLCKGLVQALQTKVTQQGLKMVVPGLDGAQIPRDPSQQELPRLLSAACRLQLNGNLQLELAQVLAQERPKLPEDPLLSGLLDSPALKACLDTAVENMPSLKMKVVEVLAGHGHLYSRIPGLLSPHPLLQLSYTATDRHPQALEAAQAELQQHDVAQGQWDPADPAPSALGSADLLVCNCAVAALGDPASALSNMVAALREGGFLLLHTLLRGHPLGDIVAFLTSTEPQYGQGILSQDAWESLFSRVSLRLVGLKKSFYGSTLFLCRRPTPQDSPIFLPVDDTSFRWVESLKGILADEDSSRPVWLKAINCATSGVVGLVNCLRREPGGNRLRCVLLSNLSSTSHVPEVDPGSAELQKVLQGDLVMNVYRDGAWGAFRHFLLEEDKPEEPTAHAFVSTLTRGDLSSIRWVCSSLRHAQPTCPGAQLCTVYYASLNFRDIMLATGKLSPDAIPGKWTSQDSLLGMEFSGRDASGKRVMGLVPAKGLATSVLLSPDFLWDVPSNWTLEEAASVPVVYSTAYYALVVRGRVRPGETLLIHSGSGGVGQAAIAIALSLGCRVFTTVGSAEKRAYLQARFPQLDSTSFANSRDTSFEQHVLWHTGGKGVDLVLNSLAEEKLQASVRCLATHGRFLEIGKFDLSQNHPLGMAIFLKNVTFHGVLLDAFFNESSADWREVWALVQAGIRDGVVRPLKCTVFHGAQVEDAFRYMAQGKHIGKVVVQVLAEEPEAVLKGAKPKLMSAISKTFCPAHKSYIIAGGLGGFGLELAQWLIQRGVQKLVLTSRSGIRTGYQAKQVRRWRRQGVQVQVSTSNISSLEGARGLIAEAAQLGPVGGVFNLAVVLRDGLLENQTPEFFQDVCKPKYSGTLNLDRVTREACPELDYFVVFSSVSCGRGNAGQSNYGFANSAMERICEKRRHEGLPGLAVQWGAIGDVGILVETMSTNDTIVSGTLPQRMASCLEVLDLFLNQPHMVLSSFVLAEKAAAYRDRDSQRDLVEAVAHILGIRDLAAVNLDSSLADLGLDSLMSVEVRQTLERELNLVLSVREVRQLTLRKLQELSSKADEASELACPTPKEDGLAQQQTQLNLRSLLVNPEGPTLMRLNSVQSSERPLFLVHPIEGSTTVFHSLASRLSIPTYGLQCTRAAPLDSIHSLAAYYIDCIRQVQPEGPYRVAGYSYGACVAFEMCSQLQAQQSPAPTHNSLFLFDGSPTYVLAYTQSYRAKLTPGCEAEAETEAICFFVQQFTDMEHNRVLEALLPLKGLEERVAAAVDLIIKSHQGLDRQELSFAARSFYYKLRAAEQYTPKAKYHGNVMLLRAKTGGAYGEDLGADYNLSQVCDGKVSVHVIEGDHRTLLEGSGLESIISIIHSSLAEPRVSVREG
# Large T antigen, sequence (P03070 whole entry): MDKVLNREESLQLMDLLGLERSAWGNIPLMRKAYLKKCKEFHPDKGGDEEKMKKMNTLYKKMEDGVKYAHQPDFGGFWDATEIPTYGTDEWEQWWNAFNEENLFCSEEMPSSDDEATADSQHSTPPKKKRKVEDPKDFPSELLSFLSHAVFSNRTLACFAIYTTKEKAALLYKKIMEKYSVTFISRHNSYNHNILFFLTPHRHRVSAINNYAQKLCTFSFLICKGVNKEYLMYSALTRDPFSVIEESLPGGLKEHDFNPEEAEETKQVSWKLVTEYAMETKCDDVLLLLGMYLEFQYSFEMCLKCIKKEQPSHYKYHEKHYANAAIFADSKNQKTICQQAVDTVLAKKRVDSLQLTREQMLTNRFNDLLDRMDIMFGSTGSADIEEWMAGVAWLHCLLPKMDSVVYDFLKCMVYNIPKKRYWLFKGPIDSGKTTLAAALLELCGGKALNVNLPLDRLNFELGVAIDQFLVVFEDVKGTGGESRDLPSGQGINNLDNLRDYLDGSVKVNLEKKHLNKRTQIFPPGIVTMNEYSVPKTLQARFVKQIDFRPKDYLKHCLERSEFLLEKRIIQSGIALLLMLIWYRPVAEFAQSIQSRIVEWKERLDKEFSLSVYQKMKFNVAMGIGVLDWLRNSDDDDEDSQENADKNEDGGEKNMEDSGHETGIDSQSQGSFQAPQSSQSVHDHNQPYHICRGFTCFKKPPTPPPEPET
# Luciferin 4-monooxygenase, sequence (P08659 whole entry): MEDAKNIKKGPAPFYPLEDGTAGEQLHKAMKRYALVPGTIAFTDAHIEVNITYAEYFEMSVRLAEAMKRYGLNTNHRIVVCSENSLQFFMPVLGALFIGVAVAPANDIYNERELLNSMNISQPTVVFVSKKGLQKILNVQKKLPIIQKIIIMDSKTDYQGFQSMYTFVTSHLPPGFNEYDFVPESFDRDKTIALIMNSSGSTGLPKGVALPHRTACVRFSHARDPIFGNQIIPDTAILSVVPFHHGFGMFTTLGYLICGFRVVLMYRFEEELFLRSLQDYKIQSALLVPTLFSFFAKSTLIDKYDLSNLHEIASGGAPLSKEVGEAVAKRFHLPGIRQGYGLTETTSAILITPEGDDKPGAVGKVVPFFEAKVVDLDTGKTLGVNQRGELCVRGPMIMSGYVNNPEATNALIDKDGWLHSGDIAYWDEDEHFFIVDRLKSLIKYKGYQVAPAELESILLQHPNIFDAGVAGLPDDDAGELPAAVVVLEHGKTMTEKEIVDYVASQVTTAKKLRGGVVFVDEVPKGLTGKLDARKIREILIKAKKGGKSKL
# Induced myeloid leukemia cell differentiation protein Mcl-1, sequence (Q07820 whole entry): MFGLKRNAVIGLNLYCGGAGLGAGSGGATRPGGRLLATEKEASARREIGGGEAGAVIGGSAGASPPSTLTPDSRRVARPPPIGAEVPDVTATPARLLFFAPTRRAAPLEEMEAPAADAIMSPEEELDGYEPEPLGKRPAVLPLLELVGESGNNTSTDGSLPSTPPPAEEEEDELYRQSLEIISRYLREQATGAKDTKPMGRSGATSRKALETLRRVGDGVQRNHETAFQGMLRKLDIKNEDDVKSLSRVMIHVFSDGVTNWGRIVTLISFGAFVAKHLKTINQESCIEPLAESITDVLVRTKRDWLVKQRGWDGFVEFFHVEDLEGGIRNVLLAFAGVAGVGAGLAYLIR
structure (smiles),measurement,setting,value
COc1ccccc1C(NC(C)=O)c1cc(Cl)c2cccnc2c1O (configuration not stated),EC50,[1],2.85 µM (active)
same,AC50,[2],2.3 µM (active)
same,AC50,[3],1.27 µM (active)
same,EC50,Streptococcus,2.95 µM (active)
same,AC50,INS1,1.38 µM (active)
same,EC50,[4],0.647 µM (active)
same,EC50,[5],2.9 µM (active)
same,AC50,[6],2.56 µM (active)
COc1ccccc1C(=O)N=Nc1c(O)[nH]c2ccc([N+](=O)[O-])cc12,IC50,[7],2.92 µM (active)
Cc1ccc(C(=O)C2=C(O)C(=O)N(Cc3cccnc3)C2c2ccc(Cl)c(Cl)c2)o1 (configuration not stated),EC50,[8],6.68 µM (active)
COc1cccc(-n2c(CN3CCN(c4ccccc4)CC3)nc3ccc([N+](=O)[O-])cc3c2=O)c1,IC50,Fatty acid synthase [9],7.99 µM (active)
same,IC50,Fatty acid synthase [10],4.81 µM (active)
O=C(Nc1cccc(C(=O)O)c1)/C(=C/c1cccc([N+](=O)[O-])c1)NC(=O)c1cccc(Br)c1,IC50,Fatty acid synthase [9],13.2 µM (active)
same,IC50,Fatty acid synthase [10],19.4 µM (active)
CC1(C)CC(=O)C=C(c2ccc(-c3cnn(Cc4ccccc4)c3)cc2)C1=O,IC50,Fatty acid synthase [9],8.05 µM (active)
same,IC50,Fatty acid synthase [10],8.34 µM (active)
CC/C(=N\c1ccccc1O)C1=C(O)CC(c2ccccc2)CC1=O (configuration not stated),IC50,Large T antigen,15.2 µM (active)
Cn1cccc1/C=N/N1CCN(Cc2ccccc2)CC1,IC50,Large T antigen,17.6 µM (active)
Cc1ccc(N/N=C/c2ccc3c(c2)OCCO3)cc1Cl,EC50,[11],40.1 µM (active)
same,EC50,[12],21 µM (active)
same,EC50,[13],> 112 µM (not active)
O=C1CCCC(O)=C1/C=N/c1ccc(O)cc1,IC50,[14],16.7 µM (active)
same,IC50,Large T antigen,12.3 µM (active)
COc1ccc2c3c([nH]c2c1)[C@@H](CO)N(C(=O)Nc1cccc(F)c1)CC31CN(CC2CCOCC2)C1,AC50,[15],4.22 µM (active)
C/C=C/c1ccc([C@H]2[C@H](CO)N(S(=O)(=O)Cc3ccccc3)C23CN(C(=O)C2CCCC2)C3)cc1,AC50,[15],5.3 µM (active)
COc1ccc(S(=O)(=O)N(C)C[C@H]2Oc3ncc(-c4ccncc4)cc3C(=O)N([C@H](C)CO)C[C@@H]2C)cc1,AC50,[15],6.55 µM (active)
COc1ccc(C#Cc2ccc3c(c2)[C@@H]2[C@@H](CCN2C(=O)C2CCC2)[C@H](CO)N3)cc1,AC50,[15],5.78 µM (active)
